Columns and labels:
[1] = test system: wide range of commonly encountered pathogenic organisms; assay: Broad spectrum / general antibiotic activity; type: cell-based
[2] = Effect of increased inocula; type: cell-based
Nephrotoxicity in rats = type: in vivo; details: dosages of 2.0 g/kg
[3] = Acute toxicity tests in mice; details: mouse, in vivo
Pseudomonas aeruginosa = assay: Experimental infections in mice with Pseudomonas aeruginosa; type: in vivo
[4] = Effect of human serum on antibacterial properties; type: cell-based
gram-negative bacteria = assay: Experimental infections in mice with gram-negative bacteria; type: in vivo
[5] = test system: strains of Pseudomonas organisms; assay: Antibacterial activity against strains of Pseudomonas organisms; type: cell-based; details: e.g. strains of Pseudomonas aeruginosa
Bactericidal action = type: cell-based; details: at concentrations close to the minimum inhibitory concentration
[6] = Distribution in small rodents after subcutaneous injection
[7] = in vivo
[8] = in vivo; remark: listed apart in the source

SMILES | properties compared with the compound of formula (Ib) [1] | effect of increased inocula [2] | nephrotoxicity (Nephrotoxicity in rats) | LD50 [3] [mg/kg] | protection against strains of Pseudomonas aeruginosa (Pseudomonas aeruginosa) | protection compared with an aminoglycoside such as amikacin (Pseudomonas aeruginosa; versus amikacin) | impairment of antibacterial properties by human serum [4] | treatment of experimental infections in mice with gram-negative bacteria (gram-negative bacteria) | activity against strains of Pseudomonas organisms [5] | bactericidal action (Bactericidal action) | antibiotic activity / general antibiotic properties [1] | therapeutic levels [6] | serum levels [7] | distribution in the body [8]
Nc1nc(/C(=N/OC2(C(=O)O)CCC2)C(=O)N[C@@H]2C(=O)N3C(C(=O)[O-])=C(C[n+]4ccccc4)CS[C@H]23)cs1 [(6R,7R)-7-[(Z)-2-(2-aminothiazol-4-yl)-2-(1-carboxycyclobut-1-oxyimino)acetamido]-3-(1-pyridiniummethyl)-ceph-3-em-4-carboxylate] | not dissimilar properties | – | – | – | – | – | – | – | – | – | – | – | – | –
CC(C)(O/N=C(\C(=O)N[C@@H]1C(=O)N2C(C(=O)[O-])=C(C[n+]3ccccc3)CS[C@H]12)c1csc(N)n1)C(=O)O [compound of formula (Ib), (6R,7R)-7-[(Z)-2-(2-aminothiazol-4-yl)-2-(2-carboxyprop-2-oxyimino)acetamido]-3-(1-pyridiniummethyl)-ceph-3-em-4-carboxylate] | – | low | No nephrotoxicity was observed | > 1000 | excellent protection | comparable | not impaired by human serum | successfully treated | excellent activity | rapidly bactericidal | possesses to an outstanding extent the general antibiotic properties | useful therapeutic levels | high and long lasting serum levels | well distributed

— US4600772A, “Cephalosporin antibiotics” (Glaxo Group Limited, priority 1978, dated 1986)
